Here are results for nine molecules from US6710056B2, “Amidinophenylpyruvic acid derivatives” (Ajinomoto Co., Inc., priority 1999, dated 2004).

For assay [1], the target named is T1, activated human blood coagulation factor VII (Homo sapiens, UniProt P08709).
T1 construct: purchased Enzyme Research Laboratories Ltd. (FVIIa); American Diagnostica Laboratories Ltd. (tissue factor)
Description: Determination of antagonistic activity to activated human blood coagulation factor VII. The format is biochemical. To be noted: FVIIa mixed with tissue factor, substrate S-2288, pH 7.4, initial velocity; read-out: Antagonistic activity to activated blood coagulation factor VII (pIC50 ) (converted). The method, then:
Determination of antagonistic activity to activated human blood coagulation factor VII:
100 nM solution of activated human blood coagulation factor VII (Enzyme Research Laboratories Ltd.) in pH 7.4 tris hydrochloride buffer solution was mixed with 100 nM solution of a tissue factor (American Diagnostica Laboratories Ltd.) in pH 7.4 tris hydrochloride buffer solution in equal amounts, and the obtained mixture was left to stand at room temperature for 30 minutes. 50 μl of 50 mM tris hydrochloride buffer solution having a pH adjusted to 7.4 was added to 5 μl of an aqueous solution of a compound to be tested. Then 10 μl of the previously prepared mixture of 50 nM of each of the solutions of activated human blood coagulation factor VII and tissue factor was added to the obtained mixture, and they were incubated at room temperature for 10 minutes. Then 25 μl of 3.2 mM solution of D-isoleucyl-L-prolyl-L-arginyl-P-nitroanilide hydrochloride (S-2288, Daiichi Pure Chemicals Co., Ltd.) in pH 7.4 tris hydrochloride buffer was added to the obtained mixture. The absorbance was determined and the initial reaction velocity was calculated. A control was prepared by using 5 μl of tris hydrochloride buffer adjusted to pH 7.4 in place of the solution of the compound to be tested. The absorbance was determined with MICROPLATE READER Model 3550-UV (BIO RAD) at a wavelength of 405 nm at intervals of […]. The negative logarithm (pIC50) of the concentration of the sample compound for the 50% inhibition of the activity (initial velocity) of the activated blood coagulation factor VII was determined, and it was employed as the index of the antagonistic activity to the activated blood coagulation factor VII.

Assay [2] addresses T2, human thrombin (Homo sapiens, UniProt P00734).
T2 construct: solution of human thrombin (SIGMA Co. Ltd.); purchased SIGMA Co. Ltd
Description: Determination of antagonistic activity to human thrombin. To be noted: substrate S-2238, pH 8.4, initial velocity, read-out: Antagonistic activity to thrombin (pIC50) (converted). It is filed as biochemical. On the procedure: (2) Determination of Antagonistic Activity to Human Thrombin:
130 μl of 100 mM tris hydrochloride buffer adjusted at pH 8.4 was added to 10 μl of an aqueous solution of a sample compound having antagonistic activity to human thrombin. Then 10 μl of a solution of human thrombin (SIGMA Co. Ltd.) adjusted to 2 units/ml with pH 8.4 tris hydrochloride buffer was added to the obtained mixture, and they were incubated at room temperature for 10 minutes. 50 μl of a 0.4 mM solution of D-phenylalanyl-L-pipecolyl-L-arginyl-P-nitroanilide dihydrochloride (S-2238, Daiichi Pure Chemicals Co., Ltd.) in pH 8.4 tris hydrochloride buffer was added to the obtained mixture. The absorbance was determined and the initial reaction velocity was calculated. A control was prepared by using 10 μl of tris hydrochloride buffer adjusted to pH 8.4 in place of the solution of the compound to be tested. The absorbance was determined with MICROPLATE READER Model 3550-UV (BIO RAD) at a wavelength of 405 nm at intervals of 15 seconds for 6 minutes. The negative logarithm (pIC50) of the concentration of the sample compound for the 50% inhibition of the activity (initial velocity) of thrombin was determined, and it was employed as the index of the antagonistic activity to thrombin.

Counter-ions that a name gives are not always drawn.

T1 sequence (P08709 213-466 limits assumed): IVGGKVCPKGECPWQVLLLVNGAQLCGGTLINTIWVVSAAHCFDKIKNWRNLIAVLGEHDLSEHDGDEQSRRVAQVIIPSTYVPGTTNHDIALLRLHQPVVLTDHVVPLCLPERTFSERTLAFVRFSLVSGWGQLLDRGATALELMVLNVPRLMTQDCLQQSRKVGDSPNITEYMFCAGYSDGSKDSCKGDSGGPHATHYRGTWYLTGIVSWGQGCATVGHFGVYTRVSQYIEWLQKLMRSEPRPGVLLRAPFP
T1 sequence (P08709 61-212 limits assumed): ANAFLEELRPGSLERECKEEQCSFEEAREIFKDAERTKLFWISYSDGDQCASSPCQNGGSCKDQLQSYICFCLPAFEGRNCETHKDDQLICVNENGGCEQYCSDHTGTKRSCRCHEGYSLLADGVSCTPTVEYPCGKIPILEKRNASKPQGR
T1 sequence (P13726 33-295 partner): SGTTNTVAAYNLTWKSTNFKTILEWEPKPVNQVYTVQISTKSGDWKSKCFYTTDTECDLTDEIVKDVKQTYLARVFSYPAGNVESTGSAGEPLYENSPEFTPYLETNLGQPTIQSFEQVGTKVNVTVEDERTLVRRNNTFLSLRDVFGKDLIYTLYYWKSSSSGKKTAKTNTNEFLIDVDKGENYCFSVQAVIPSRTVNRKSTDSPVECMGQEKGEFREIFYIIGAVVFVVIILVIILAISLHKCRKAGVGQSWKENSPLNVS

In the case of `N=C(N)c1ccc(CC(=O)C(=O)O)c(OC[C@@H](CCC(=O)O)NC(=O)c2ccc3nc(N)ccc3c2)c1` [Compound of Ex. 1, (4R)-4-[(2-Aminoquinoline-6-carbonyl)amino]-5-[5-amidino-2-(2-carboxy-2-oxoethyl)phenoxy]pentanoic acid bistrifluoroacetate], the results for the IC50 in assay [1] and in assay [2] were 126 nM and > 100000 nM, respectively.
In the case of `COc1ccc(-c2ccccc2)cc1C(=O)N[C@H](CCC(=O)O)COc1cc(C(=N)N)ccc1CC(=O)C(=O)O` [Compound of Ex. 27, (4R)-4-(2-Methoxy-5-phenylbenzoylamino)-5-[5-amidino-2-(2-carboxy-2-oxoethyl)phenoxy]pentanoic acid trifluoroacetate], in assay [1], the IC50 was 50.1 nM.
For the molecule `N=C(N)c1ccc(CC(=O)C(=O)O)c(OC[C@@H](CCC(=O)O)NC(=O)c2ccc3nc(N)sc3c2)c1` [Compound of Ex. 28, (4R)-4-[(2-Aminobenzothiazole-6-carbonyl)amino]-5-[5-amidino-2-(2-carboxy-2-oxoethyl)phenoxy]pentanoic acid trifluoroacetate], the values for the IC50 in assay [1] and in assay [2] were 5.01 nM and > 100000 nM, respectively.
Take `N=C(N)c1ccc(CC(=O)C(=O)O)c(OC[C@@H](CCC(=O)O)NC(=O)c2cc3c(cc2Br)CCO3)c1` [Compound of Ex. 45, (4R)-4-[(5-Bromo-2,3-dihydrobenzo[b]furan-6-carbonyl)amino]-5-[5-amidino-2-(2-carboxy-2-oxoethyl)phenoxy]pentanoic acid trifluoroacetate]: the IC50 in assay [1] is 100 nM.
Turning to `N=C(N)c1ccc(CC(=O)C(=O)O)c(OCCNC(=O)c2ccc3nc(N)ccc3c2)c1` [Compound of Ex. 2, 3-[4-Amidino-2-[2-(2-aminoquinoline-6-carbonyl)aminoethoxy]phenyl]-2-oxopropionic acid bistrifluoroacetate], the values for the IC50 in assay [1] and in assay [2] were 316 nM and 31600 nM, respectively.
Take `N=C(N)Nc1ccc(C(=O)N[C@H](CCC(=O)O)COc2cc(C(=N)N)ccc2CC(=O)C(=O)O)cc1` [Compound of Ex. 23, (4R)-4-[(4-Guanidinobenzoyl)amino]-5-[5-amidino-2-(2-carboxy-2-oxoethyl)phenoxy]pentanoic acid bistrifluoroacetate]: the IC50 was 251 nM in assay [1] and > 100000 nM in assay [2].
For the molecule `N=C(N)c1ccc(-c2cccc(C(=O)N[C@H](CCC(=O)O)COc3cc(C(=N)N)ccc3CC(=O)C(=O)O)c2)cc1` [Compound of Ex. 13, (4R)-4-[[3-(4-Amidinophenyl)benzoyl]amino]-5-[5-amidino-2-(2-carboxy-2-oxoethyl)phenoxy]pentanoic acid bistrifluoroacetate], the figures for the IC50 in assay [1] and in assay [2] were 100 nM and 7940 nM, respectively.
In the case of `N=C(N)c1ccc(CC(=O)C(=O)O)c(OCCNC(=O)c2ccc3nc(N)sc3c2)c1` [Compound of Ex. 39, 3-[4-Amidino-2-[2-(2-amino-benzothiazole-6-carbonyl)aminoethoxy]phenyl]-2-oxo-propionic acid trifluoroacetate], the figures for the IC50 in assay [1] and in assay [2] were 20 nM and 39800 nM, respectively.
Consider `Cc1nc2ccc(C(=O)N[C@H](CCC(=O)O)COc3cc(C(=N)N)ccc3CC(=O)C(=O)O)cc2[nH]1` [Compound of Ex. 4, (4R)-4-[(2-Methylbenzimidazole-5-carbonyl)amino]-5-[5-amidino-2-(2-carboxy-2-oxoethyl)phenoxy]pentanoic acid bistrifluoroacetate], for which the IC50 in assay [1] is 200 nM; in assay [2] it was > 100000 nM.
